From ChEMBL document CHEMBL1921705, “Thiophene inhibitors of PDE4: crystal structures show a second binding mode at the catalytic domain of PDE4D2” (Bioorg Med Chem Lett, 2011)
Calls of active or inactive are those of the source. No cut-off for these calls is given here.

Key:
UMR106 [1] = experiment: Inhibition of PDE4D2 in rat UMR106 cell lysates at 1 uM after 15 mins using [3H]cAMP by scintillation proximity assay; format: cell-free
UMR106 [2] = experiment: Inhibition of PDE4D2 in rat UMR106 cells coexpressing pCRE-luc assessed as activation of cREB protein at 10 uM after 4 hrs by measuring luciferase activity by luminescence assay; format: cell-based
[3] = target: T1, 3',5'-cyclic-AMP phosphodiesterase 4D (Homo sapiens, UniProt Q08499); experiment: Inhibition of N-terminal 6His-tagged human recombinant PDE4D2 expressed in Escherichia coli BL21 (DE3) at 1 uM after 15 mins using [3H]cAMP by scintillation proximity assay
T1 sequence (Q08499 whole entry): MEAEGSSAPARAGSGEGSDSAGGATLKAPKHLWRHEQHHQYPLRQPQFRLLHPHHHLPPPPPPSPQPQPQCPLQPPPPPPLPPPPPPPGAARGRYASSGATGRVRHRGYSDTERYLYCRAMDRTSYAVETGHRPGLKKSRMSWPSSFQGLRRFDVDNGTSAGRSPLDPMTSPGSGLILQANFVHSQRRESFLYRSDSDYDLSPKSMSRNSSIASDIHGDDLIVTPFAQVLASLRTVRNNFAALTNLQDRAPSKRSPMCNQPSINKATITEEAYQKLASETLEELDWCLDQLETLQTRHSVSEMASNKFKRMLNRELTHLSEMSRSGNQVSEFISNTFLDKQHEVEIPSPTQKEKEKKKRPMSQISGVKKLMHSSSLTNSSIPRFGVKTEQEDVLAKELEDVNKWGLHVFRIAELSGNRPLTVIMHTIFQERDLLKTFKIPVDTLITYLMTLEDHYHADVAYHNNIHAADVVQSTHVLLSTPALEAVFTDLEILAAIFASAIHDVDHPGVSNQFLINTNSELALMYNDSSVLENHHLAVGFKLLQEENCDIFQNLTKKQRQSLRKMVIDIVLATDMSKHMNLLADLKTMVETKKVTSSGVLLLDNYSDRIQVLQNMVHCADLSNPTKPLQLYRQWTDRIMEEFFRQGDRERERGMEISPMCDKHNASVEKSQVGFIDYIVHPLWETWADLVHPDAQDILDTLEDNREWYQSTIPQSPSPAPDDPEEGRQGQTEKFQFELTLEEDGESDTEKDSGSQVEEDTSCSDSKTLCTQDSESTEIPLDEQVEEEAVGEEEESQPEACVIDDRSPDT

UMR106 [4] = experiment: Inhibition of PDE4D2 in rat UMR106 cells coexpressing pCRE-luc assessed as activation of cREB protein after 4 hrs by measuring luciferase activity by luminescence assay; format: cell-based
UMR106 [5] = experiment: Inhibition of PDE4D2 in rat PTHrP-stimulated UMR106 cells coexpressing pCRE-luc assessed as activation of cREB protein after 4 hrs by measuring luciferase activity by luminescence assay; format: cell-based
[6] = Inhibition of rat PDE4D2 in UMR106 cell lysates after 15 mins using [3H]cAMP by scintillation proximity assay; format: cell-free
[7] = target: T1, 3',5'-cyclic-AMP phosphodiesterase 4D; experiment: Inhibition of human recombinant PDE4D2 overexpressed in Escherichia coli after 15 mins using [3H]cAMP by scintillation proximity assay
[8] = Inhibition of PDE in rat UMR106 cells co-expressing CRE-luc assessed as PTH-induced cAMP accumulation by luciferase reporter gene assay; format: cell-based

| Compound | inhibition (UMR106 [1]) [%] | inhibition [3] [%] | further results |
| --- | --- | --- | --- |
| CCOC(=O)c1c(NC(=O)Cc2ccc(S(C)(=O)=O)cc2)sc2c1CCN(C(=O)OCC)C2 | -4 |  |  |
| CCOC(=O)c1c(NC(=O)c2cccc(S(=O)(=O)N3CCOCC3)c2)sc(C)c1C |  |  | inhibition (UMR106 [2]): Active |
| CCOC(=O)N1CCc2c(sc(NC(=O)Cc3cccs3)c2C(=O)OC2CCCC2)C1 |  | 95 | inhibition (UMR106 [4]): Dose-dependent effect; inhibition (UMR106 [5]): Dose-dependent effect |
| NC(=O)c1c(NC(=O)Cc2ccccc2)sc2c1CCCC2 | 15 |  |  |
| CCOC(=O)c1c(NC(=O)Cc2ccccc2)sc2c1CCNC2 | 25 |  |  |
| N#Cc1c(NC(=O)Cc2ccccc2)sc2c1CCCC2 | 24 |  |  |
| CCOC(=O)c1c(NC(=O)Cc2ccccc2OC)sc2c1CCN(C(=O)OCC)C2 | 37 |  |  |
| CCOC(=O)c1c(NC(=O)Cc2ccccc2)sc2c1CCN(C(=O)OC(C)(C)C)C2 |  | 38 |  |
| CCOC(=O)c1c(NC(=O)Cc2cccc(OC)c2)sc2c1CCN(C(=O)OCC)C2 | 9 |  |  |
| CCOC(=O)c1c(NC(=O)Cc2ccccc2)sc2c1CC(C)(C)OC2 |  |  | inhibition (UMR106 [2]): Active |
| CCOC(=O)c1c(NC(=O)Cc2cccs2)sc2c1CCN(C(=O)OCC)C2 | 70 | 98 | IC50 [6]: 182 nM |
| CCOC(=O)c1c(NC(=O)Cc2ccccn2)sc2c1CCN(C(=O)OCC)C2 | 73 | 72 | IC50 [6]: 80 nM |
| CCOC(=O)c1c(NC(=O)Cc2ccccc2)sc2c1CCCC2 |  | 68 | IC50 [7]: 1500 nM; inhibition (UMR106 [2]): Active |
| CCOC(=O)c1c(NC(=O)c2ccccc2)sc2c1CCN(C(=O)OCC)C2 | 14 |  |  |
| CCOC(=O)N1CCc2c(sc(NC(=O)Cc3ccccc3)c2C(=O)OC2CCCCC2)C1 |  | 61 |  |
| CCOC(=O)c1c(NC(=O)Cc2ccccc2)sc2c1CCN(C(=O)OCC)C2 | 85 | 86 | IC50 [7]: 100 nM; inhibition (UMR106 [2]): Active |
| O=C(Cc1ccccn1)Nc1sc2c(c1C(=O)OC1CCCC1)CCN(C(=O)NCc1ccccc1)C2 |  | 65 |  |
| CCNC(=O)N1CCc2c(sc(NC(=O)Cc3cccs3)c2C(=O)OC2CCCC2)C1 |  | 88 |  |
| CCOC(=O)c1c(NC(=O)Cc2ccccc2)sc2c1CCC2 |  |  | inhibition (UMR106 [2]): Active |
| CCNC(=O)N1CCc2c(sc(NC(=O)Cc3ccccc3)c2C(=O)OCC)C1 |  | 98 |  |
| CCOC(=O)c1c(NC(=O)Cc2cccs2)sc2c1CCCC2 |  |  | inhibition (UMR106 [2]): Active |
| CCOC(=O)c1c(NC(=O)CCc2ccccc2)sc2c1CCN(C(=O)OCC)C2 | 22 |  |  |
| CCOC(=O)c1c(NC(=O)Cc2ccc(OC)cc2)sc2c1CCN(C(=O)OCC)C2 | 26 | 23 |  |
| CCOC(=O)c1c(NC(=O)Cc2ccccc2)sc2c1CCN(C(C)=O)C2 | 50 |  | IC50 [6]: 1000 nM |
| CCOC(=O)c1c(NCc2ccccc2)sc2c1CCN(C(=O)OCC)C2 | 33 |  |  |
| COc1ccc(C2CNC(=O)C2)cc1OC1CCCC1 (stereo unspecified) [ROLIPRAM] |  |  | IC50 [8]: 600 nM |
| CCOC(=O)N1CCc2c(sc(NC(=O)Cc3ccccc3)c2C(N)=O)C1 | 18 | -1 |  |
